How the values were obtained:
[1] = molecular target: Activin receptor type-1-like (Homo sapiens) (UniProt P37023); assay: Selectivity interaction (KinomeScan (DiscoverX)) EUB0000595a ACVRL1; settings: at 10 µM
[2] = molecular target: N-lysine methyltransferase SMYD2 (Homo sapiens) (UniProt Q9NRG4); assay: Selectivity interaction (Methyltransferase screen (radiometric assays, panel of 8 PRMTs, 21 protein lysine methyltransferases, 3 DNA methyltransferases, and one RNA methyltransferase)) EUB0000272b SMYD2
Chain of N-lysine methyltransferase SMYD2 (Homo sapiens) (Q9NRG4 whole entry): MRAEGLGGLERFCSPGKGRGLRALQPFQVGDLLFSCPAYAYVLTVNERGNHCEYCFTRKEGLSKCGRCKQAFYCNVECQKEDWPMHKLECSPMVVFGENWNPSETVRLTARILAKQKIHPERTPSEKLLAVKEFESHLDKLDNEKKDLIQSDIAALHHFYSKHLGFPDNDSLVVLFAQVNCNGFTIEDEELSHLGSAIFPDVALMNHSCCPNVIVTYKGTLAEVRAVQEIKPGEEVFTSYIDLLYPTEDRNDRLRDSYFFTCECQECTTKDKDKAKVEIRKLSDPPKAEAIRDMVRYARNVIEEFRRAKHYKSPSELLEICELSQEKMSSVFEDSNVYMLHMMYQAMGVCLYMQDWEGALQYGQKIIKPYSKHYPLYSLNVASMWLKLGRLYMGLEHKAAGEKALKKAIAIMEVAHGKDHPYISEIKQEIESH

[3] = test system: Tyrosine-protein kinase ABL1 (Homo sapiens), P00519 [H396P]; assay: Selectivity interaction (KinomeScan (DiscoverX)) EUB0000666a ABL1; settings: at 10 µM
[4] = molecular target: Protein kinase C beta type (Homo sapiens, UniProt P05771); assay: Selectivity interaction (Upstate Kinase Profiler service (Millipore)) EUB0000056c PRKCB; settings: at 1 µM
Chain of Protein kinase C beta type (P05771 2-671 limits assumed): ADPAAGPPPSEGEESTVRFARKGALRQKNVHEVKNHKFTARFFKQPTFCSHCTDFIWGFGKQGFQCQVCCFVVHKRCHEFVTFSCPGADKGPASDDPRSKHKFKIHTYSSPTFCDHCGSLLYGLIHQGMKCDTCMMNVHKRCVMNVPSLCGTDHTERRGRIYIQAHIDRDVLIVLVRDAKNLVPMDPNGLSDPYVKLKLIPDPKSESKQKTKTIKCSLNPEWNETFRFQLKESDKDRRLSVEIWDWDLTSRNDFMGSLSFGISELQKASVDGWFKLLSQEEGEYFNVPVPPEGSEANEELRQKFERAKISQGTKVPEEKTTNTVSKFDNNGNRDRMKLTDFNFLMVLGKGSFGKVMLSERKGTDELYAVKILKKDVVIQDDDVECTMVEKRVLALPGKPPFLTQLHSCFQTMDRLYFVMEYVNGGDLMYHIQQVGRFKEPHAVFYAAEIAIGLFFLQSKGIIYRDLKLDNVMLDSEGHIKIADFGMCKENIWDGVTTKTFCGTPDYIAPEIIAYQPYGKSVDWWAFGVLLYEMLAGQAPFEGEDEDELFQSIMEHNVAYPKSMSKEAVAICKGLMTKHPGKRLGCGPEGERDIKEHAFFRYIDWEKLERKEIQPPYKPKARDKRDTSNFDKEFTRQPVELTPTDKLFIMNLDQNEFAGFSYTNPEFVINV

[5] = molecular target: Receptor tyrosine-protein kinase erbB-2 (Homo sapiens, UniProt P04626); assay: Selectivity interaction (Kinase panel (33PanQinase(R) Activity Assay)) EUB0000877a ERBB2
Chain of Receptor tyrosine-protein kinase erbB-2 (P04626 whole entry): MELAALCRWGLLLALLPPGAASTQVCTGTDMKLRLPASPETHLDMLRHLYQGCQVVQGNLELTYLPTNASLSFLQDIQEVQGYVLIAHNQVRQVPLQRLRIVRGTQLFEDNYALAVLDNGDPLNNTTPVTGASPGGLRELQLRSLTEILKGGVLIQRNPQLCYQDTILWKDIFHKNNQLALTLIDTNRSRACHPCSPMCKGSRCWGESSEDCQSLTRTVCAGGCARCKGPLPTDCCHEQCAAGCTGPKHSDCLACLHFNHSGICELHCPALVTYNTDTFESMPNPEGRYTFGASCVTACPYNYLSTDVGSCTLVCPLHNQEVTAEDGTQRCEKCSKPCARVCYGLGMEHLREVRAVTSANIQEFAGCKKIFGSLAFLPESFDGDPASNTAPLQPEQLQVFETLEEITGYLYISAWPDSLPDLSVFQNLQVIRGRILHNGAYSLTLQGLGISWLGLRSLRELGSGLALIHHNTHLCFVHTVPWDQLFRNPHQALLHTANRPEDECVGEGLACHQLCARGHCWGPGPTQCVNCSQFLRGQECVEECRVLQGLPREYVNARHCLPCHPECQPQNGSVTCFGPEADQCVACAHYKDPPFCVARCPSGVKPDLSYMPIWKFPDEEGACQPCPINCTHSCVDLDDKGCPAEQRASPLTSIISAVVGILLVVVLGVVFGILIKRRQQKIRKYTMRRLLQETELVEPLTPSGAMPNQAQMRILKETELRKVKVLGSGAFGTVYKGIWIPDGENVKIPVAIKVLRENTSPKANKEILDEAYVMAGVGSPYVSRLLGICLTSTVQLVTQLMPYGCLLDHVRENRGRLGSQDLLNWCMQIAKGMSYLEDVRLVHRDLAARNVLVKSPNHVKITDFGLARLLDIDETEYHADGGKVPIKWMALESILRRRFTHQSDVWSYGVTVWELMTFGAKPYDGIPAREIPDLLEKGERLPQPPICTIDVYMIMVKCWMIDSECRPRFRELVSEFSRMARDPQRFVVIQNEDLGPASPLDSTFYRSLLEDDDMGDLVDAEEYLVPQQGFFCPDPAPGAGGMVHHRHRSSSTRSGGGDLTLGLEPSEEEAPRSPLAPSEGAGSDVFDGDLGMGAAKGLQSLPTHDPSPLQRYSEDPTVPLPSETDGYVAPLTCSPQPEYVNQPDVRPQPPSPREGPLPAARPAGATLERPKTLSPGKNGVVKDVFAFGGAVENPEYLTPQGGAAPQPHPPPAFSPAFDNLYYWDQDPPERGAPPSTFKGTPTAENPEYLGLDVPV

[6] = molecular target: T1, Serine/threonine-protein kinase tousled-like 1 (Homo sapiens) (UniProt Q9UKI8); assay: Selectivity interaction (ActivX KiNativ screen (ex vivo kinase selectivity in human PBMCs)) EUB0001619a TLK1; format: cell-based; settings: PBMC, at 1 µM
T1 sequence (whole entry): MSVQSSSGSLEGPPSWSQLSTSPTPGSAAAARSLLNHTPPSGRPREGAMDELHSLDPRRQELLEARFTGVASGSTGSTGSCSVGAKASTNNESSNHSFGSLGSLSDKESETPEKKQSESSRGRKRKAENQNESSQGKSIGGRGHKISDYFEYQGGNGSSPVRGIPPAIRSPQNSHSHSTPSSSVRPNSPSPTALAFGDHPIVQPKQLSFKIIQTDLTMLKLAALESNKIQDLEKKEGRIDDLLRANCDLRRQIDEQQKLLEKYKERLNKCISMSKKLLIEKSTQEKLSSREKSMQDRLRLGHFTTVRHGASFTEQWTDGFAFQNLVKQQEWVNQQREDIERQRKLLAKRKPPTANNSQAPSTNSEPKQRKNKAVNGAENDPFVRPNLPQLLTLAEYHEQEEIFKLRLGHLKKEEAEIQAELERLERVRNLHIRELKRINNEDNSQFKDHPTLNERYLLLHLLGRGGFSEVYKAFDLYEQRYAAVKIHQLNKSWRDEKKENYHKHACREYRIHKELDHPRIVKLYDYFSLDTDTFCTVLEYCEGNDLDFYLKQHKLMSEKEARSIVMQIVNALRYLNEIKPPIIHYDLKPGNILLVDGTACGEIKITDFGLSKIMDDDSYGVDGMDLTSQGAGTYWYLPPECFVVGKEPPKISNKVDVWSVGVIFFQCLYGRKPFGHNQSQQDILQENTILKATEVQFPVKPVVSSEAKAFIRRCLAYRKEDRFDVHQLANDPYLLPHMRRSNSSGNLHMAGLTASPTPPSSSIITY

[7] = molecular target: Casein kinase I isoform delta (Homo sapiens, UniProt P48730); assay: Selectivity interaction (KinomeScan (DiscoverX)) EUB0000618a CSNK1D; settings: at 10 µM
Chain of Casein kinase I isoform delta (P48730 whole entry, looked up, canonical isoform): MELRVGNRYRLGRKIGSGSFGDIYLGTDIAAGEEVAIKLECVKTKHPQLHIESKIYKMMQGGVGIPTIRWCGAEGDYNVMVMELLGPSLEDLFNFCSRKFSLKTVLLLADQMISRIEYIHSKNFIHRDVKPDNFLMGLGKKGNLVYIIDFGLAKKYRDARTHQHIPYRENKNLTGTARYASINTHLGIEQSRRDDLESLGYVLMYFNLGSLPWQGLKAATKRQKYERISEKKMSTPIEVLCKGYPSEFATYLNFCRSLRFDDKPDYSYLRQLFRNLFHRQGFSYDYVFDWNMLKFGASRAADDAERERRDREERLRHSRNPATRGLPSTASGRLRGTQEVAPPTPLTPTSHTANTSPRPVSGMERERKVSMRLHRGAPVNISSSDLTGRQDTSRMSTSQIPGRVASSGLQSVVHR

[8] = molecular target: T2, Phosphatidylinositol 4,5-bisphosphate 3-kinase catalytic subunit delta isoform (Homo sapiens) (UniProt O00329); assay: Selectivity interaction (ActivX KiNativ screen (kinase selectivity in THP-1 cell lysates)) EUB0000639a PIK3CD; format: subcellular; settings: lysate, at 1 µM
T2 sequence (whole entry): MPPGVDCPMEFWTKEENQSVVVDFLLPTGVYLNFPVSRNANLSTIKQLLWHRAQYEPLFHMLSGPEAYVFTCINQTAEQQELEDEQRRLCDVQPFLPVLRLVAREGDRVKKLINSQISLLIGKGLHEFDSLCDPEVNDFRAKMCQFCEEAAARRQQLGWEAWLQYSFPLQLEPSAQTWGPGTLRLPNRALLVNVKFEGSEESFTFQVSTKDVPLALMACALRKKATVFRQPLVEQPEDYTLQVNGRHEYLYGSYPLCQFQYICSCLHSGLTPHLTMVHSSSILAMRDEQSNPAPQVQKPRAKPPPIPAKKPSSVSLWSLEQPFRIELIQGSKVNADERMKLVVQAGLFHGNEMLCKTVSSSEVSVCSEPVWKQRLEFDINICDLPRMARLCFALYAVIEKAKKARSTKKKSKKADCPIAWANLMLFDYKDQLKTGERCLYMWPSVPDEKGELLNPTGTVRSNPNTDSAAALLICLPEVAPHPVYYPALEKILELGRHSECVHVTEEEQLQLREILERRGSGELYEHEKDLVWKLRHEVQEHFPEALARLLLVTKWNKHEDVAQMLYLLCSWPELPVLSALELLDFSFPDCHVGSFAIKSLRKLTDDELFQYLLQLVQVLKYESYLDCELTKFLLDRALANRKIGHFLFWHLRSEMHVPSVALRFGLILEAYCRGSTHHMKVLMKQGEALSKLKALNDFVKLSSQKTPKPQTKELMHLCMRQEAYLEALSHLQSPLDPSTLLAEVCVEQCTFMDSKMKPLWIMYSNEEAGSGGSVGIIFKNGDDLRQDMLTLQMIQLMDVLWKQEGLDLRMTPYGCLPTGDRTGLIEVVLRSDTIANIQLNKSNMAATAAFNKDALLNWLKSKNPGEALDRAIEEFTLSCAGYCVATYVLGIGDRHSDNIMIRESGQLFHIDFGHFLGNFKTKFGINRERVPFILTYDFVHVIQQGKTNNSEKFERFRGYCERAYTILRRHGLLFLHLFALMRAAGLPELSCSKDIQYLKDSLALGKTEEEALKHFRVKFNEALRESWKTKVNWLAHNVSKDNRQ

[9] = molecular target: eIF-2-alpha kinase GCN2 (Homo sapiens) (UniProt Q9P2K8); assay: Selectivity interaction (ActivX KiNativ screen (kinase selectivity in THP-1 cell lysates)) EUB0000639a EIF2AK4; format: subcellular; settings: lysate, at 5 µM
[10] = molecular target: Mitogen-activated protein kinase kinase kinase kinase 5 (Homo sapiens) (UniProt Q9Y4K4); assay: Selectivity interaction (Ambit KINOMEscan and KiNATiv profiling in Jurkat cells) EUB0000090b MAP4K5; format: cell-based; settings: at 1 µM
Chain of Mitogen-activated protein kinase kinase kinase kinase 5 (Homo sapiens) (Q9Y4K4 whole entry, looked up): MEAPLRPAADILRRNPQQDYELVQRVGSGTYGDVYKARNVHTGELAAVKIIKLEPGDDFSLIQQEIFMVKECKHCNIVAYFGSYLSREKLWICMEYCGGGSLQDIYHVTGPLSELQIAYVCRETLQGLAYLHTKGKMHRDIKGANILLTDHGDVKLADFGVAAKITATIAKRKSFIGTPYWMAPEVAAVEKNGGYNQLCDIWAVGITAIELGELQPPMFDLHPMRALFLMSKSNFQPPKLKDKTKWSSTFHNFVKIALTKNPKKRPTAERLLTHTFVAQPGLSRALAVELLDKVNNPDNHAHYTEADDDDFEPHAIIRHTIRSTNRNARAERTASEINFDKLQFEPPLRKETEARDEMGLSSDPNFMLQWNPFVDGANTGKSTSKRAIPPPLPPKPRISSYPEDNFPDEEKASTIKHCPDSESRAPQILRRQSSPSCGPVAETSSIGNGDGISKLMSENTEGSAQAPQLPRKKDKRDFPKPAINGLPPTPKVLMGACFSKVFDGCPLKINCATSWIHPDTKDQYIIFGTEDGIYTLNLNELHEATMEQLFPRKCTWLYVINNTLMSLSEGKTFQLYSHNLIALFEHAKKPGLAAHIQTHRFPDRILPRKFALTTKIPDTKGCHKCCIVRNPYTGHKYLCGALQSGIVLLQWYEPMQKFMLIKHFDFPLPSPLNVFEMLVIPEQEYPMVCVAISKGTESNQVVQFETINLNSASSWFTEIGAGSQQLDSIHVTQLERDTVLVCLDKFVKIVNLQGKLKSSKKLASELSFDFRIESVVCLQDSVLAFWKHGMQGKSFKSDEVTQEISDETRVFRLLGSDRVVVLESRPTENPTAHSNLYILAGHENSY

[11] = molecular target: Tyrosine-protein kinase BTK (Homo sapiens, UniProt Q06187); assay: Selectivity interaction (Ambit KINOMEscan and KiNATiv profiling in Jurkat cells) EUB0000090b BTK; format: cell-based; settings: at 1 µM
Chain of Tyrosine-protein kinase BTK (Q06187 whole entry): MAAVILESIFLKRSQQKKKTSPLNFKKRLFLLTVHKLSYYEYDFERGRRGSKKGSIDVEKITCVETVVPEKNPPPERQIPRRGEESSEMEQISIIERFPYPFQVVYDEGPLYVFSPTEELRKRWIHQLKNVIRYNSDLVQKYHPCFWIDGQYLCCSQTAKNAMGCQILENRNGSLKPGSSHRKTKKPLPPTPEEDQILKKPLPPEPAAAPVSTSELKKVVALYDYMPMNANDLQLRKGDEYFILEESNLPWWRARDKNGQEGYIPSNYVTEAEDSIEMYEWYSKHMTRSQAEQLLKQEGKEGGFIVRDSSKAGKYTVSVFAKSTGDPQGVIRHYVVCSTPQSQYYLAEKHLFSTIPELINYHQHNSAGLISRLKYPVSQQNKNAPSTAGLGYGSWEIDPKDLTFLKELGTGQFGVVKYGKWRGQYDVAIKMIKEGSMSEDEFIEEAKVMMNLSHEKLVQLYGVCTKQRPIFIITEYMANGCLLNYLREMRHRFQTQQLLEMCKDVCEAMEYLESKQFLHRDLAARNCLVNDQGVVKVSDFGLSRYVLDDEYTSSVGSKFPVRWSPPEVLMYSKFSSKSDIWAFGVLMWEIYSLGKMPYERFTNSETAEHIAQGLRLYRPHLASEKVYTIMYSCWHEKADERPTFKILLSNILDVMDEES

Chain of Activin receptor type-1-like (Homo sapiens) (P37023 whole entry): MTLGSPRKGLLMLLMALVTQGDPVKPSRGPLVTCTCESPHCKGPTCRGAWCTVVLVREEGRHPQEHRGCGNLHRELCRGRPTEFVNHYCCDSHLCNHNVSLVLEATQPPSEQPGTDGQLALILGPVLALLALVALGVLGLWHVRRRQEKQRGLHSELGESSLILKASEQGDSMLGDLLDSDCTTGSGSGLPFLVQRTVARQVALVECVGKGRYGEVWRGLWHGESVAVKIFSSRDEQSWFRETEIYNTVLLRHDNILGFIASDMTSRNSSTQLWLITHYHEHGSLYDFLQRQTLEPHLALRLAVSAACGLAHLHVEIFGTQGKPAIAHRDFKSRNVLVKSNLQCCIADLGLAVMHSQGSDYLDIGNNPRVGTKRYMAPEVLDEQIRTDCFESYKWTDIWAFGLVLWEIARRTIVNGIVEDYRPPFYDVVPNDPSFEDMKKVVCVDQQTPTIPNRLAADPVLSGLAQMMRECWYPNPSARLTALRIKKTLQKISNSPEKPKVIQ

With `COCC(=O)NC/C=C/c1ccc2ncnc(Nc3ccc(Oc4ccc(C)nc4)c(C)c3)c2c1` [CP-724714] the % of control [1] was 84%.
`Cc1cc(C)cc([C@H]2c3cc(C)ccc3NC(=O)CN2C(=O)c2ccc(Br)s2)c1` gave a % of activity ([2]; at 1 µM) of 94.3% and a % of activity ([2]; at 10 µM) of 94.3%.
`O=C(NOC[C@H](O)CO)c1ccc(F)c(F)c1Nc1ccc(I)cc1F` was tested, and the % of control [3] was 100%.
`Cc1ccc(-c2ccc3c(ccc4sc5c(c43)NC[C@@H](C)NC5=O)n2)cn1` gave a % of inhibition [4] of 8%.
`CCC(=O)N1CC[C@H](Nc2ncnc3c2CN(c2cnc(OC)c(C(F)(F)F)c2)CC3)C1` [LENIOLISIB] was tested, and the IC50 [5] was > 10 µM.
`N#Cc1cccc(-c2c[nH]c3ncnc(N4CCOCC4)c23)c1` showed a % of inhibition [6] of 6%.
For `O[C@H]1CC[C@H](Nc2ncc3nc(Nc4c(F)cc(F)cc4F)n([C@H]4CCOC4)c3n2)CC1`, the % of control [7] was 83%.
`CC[C@@H]1[C@H](F)C(=O)N[C@@H]1COc1nccc2cc(C(N)=O)c(OC)cc12` [ZIMLOVISERTIB] was tested, and the % of inhibition [8] was -2.6% and the % of inhibition [9] was 19.4%.
`CN(C)C/C=C/C(=O)Nc1ccc(C(=O)N2CCCC(Nc3ncc(Cl)c(-c4c[nH]c5ccccc45)n3)C2)cc1` (configuration not stated) was tested, and the % of control [10] was 81% and the % of control [11] was 90%.
